Results published in patent publication US20030055065A1, “Tricyclic amide and urea compounds useful for inhibition of G-protein function and for treatment of proliferative diseases” (priority 1993, published 2003).
Where “and” joins values, the source holds several entries; their conditions need not be identical. Equal values may be shown once. Read-outs that look alike come from different tables or passages of the source.

What was measured:
[1] = system: Ras-CVLS processing in COS monkey kidney cells; test: COS cell assay: Ras-CVLS processing (Western blot); format: cell-based; settings: COS cells; for IC50: read-out: Inhibition of Ras Processing IC50
Description: 2. […] Effect of farnesyl protein transferase inhibitors on Ras processing and on disordered cell growth induced by transforming Ras. COS monkey kidney cells were transfected by electroporation with the plasmid pSV-SPORT (Gibco/BRL) containing a cDNA insert encoding either Ras-CVLS or Ras-CVLL, leading to transient overexpression of a Ras substrate for either farnesyl protein transferase or geranylgeranyl protein transferase I, respectively (see above). […] After 24 hours, media was removed and fresh media containing the appropriate drugs was re-added. 48 hours after electroporation cells were examined under the microscope to monitor disordered cell growth induced by transforming Ras. Cells expressing transforming Ras become more rounded and refractile and overgrow the monolayer, reminiscent of the transformed phenotype. […] Cells were lysed by homogenization and cell debris was removed by centrifugation at 2000×g for 10 min. Cellular protein was precipitated by addition of ice-cold trichloroacetic acid and redissolved in 100 μl of SDS-electrophoresis sample buffer. […] Proteins resolved on the gels were electroblotted onto nitrocellulose membranes for immunodetection. […] E., et al., (1982), Monoclonal antibodies to the p21 products of the transforming gene of Harvey murine sarcome virus and of the cellular ras gene family, J. Virol. 43: 294-304), in PBS containing 1% fetal calf serum for one hour at room temperature. After washing, membranes were incubated for one hour at room temperature with a 1:5000 dilution of secondary antibody, rabbit anti-rat IgG conjugated to horseradish peroxidase, in PBS containing 1% fetal calf serum.

[2] = system: T24-BAG4 human bladder carcinoma cells expressing an activated H-ras gene; test: Cell Mat Assay: tumor cell colony inhibition (tIC50); format: cell-based; settings: inhibition of tumor cell growth
Description: (§1) Compound-induced colony inhibition was assayed by addition of serial dilutions of compound directly to the growth medium 24 h after tumor cell planting, and incubating cells for an additional 14 d to allow colony formation. Assays were terminated by rinsing monolayers twice with phosphate-buffered saline (PBS), fixing the monolayers with a 1% glutaraldehyde solution in PBS, then visualizing tumor cells by staining with X-Gal (Price, J., et al., Lineage analysis in the vertebrate nervous system by retrovirus-mediated gene transfer, Proc. Natl. Acad. Sci.84, 156-160(1987)). […] Both IC50 values were obtained by determining the density of tumor cells and mat cells by visual inspection and enumeration of cells per colony and the number of colonies under the microscope.

[3] = molecular target: T1, farnesyl protein transferase (FPT), partially purified from rat brain (Rattus norvegicus, UniProt Q02293+Q04631); test: Inhibition of farnesyl protein transferase (transfer of [3H]farnesyl to Ras-CVLS); format: biochemical; settings: read-out: FPT IC50
T1 construct: were partially purified from rat brain by ammonium sulfate fractionation followed by Q-Sepharose
Procedure, shortened: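 Transfer of [3H]farnesyl onto E. coli-expressed, His6-tagged Ras-CVLS was measured after 30 min at room temperature. Radiolabelled Ras was TCA-precipitated on ice and filter-harvested, and inhibition was expressed as percent of DMSO control.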

[4] = system: Normal human HEPM fibroblasts; test: Cell Mat Assay: density of mat cells (mIC50); format: cell-based
Description: as §1

[5] = Ras-CVLS farnesylation, partially purified rat brain FPT

T1 sequence (Q02293 whole entry, one chain of several): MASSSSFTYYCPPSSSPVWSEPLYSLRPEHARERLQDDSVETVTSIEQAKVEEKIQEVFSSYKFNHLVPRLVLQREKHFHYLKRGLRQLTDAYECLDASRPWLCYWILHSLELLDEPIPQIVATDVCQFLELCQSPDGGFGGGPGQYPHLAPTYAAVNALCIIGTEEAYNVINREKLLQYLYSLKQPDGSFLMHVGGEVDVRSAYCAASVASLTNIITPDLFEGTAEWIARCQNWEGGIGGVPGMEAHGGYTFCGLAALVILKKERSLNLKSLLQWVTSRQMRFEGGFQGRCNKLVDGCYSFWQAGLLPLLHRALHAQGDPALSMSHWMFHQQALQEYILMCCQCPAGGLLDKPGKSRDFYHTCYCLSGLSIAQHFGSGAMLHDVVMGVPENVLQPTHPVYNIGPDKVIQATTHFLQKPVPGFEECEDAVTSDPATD

Compound | IC50 ([1]; Primates, COS) [µM] | IC50 ([2]; Homo sapiens) [µM] | IC50 [3, 5] | IC50 ([4]; Homo sapiens, Fibroblast) [µM] | IC50 [2] [µM] | IC50 ([3]; enzyme inhibition) [µM] | IC50 [4] [µM] | IC50 [1] [µM] | Inhibition of Ras Processing at the concentration in parentheses ([1]; (5) μM)
CC(C)(C(=O)N1CCN(C2c3ccc(Cl)cc3CCc3cc(Br)cnc32)CC1)c1cccnc1 (stereo not drawn) [Example 353] | 0.9 | 6.25 | 0.76 µM and 0.3 µM | > 25 | – | – | – | – | –
CN1CCCC(CC(=O)N2CCN(C3c4ccc(Cl)cc4CCc4cccnc43)CC2)C1 (stereo not drawn) [Example 206] | 2.4 | < 3.1 | 1.19 µM | 16 | – | – | – | – | –
CC(C)(C(=O)N1CCC(=C2c3ccc(Cl)cc3CCc3cccnc32)CC1)c1cccnc1 [Example 300] | 2.6 | < 3.1 | 0.96 µM | > 50 | – | – | – | – | –
CC(=O)N1CCC(C(=O)N2CCN([C@H]3c4ccc(Cl)cc4CCc4cccnc43)CC2)CC1 [226 (5.101)] | 6.5 | 12.5 | 1.8 µM | > 50 | – | – | – | – | –
O=C(Cc1ccc[n+]([O-])c1)N1CCC(=C2c3ccc(Cl)cc3CCc3cc(Br)cnc32)CC1 [Example 411-G] | 5.1 | 6.25 | – | > 25 | 4 | 0.7 | > 12.5 | – | –
O=C(Nc1ccncc1)N1CCC(C2c3ccccc3CCc3cccnc32)CC1 (stereo not drawn) [Example 366] | – | – | 4 µM | – | 3.1 | – | > 50 | 3.3 | –
CN1CCC(CC(=O)N2CCN(C3c4ccc(Cl)cc4CCc4cccnc43)CC2)CC1 (stereo not drawn) [Example 201] | 0.93 | 3.1 | 1.4 µM | 12.5 | – | – | – | – | –
O=C1Cc2cccnc2C(=C2CCN(C(=O)Cc3cc[n+]([O-])cc3)CC2)c2ccc(Cl)cc21 [Example 418] | > 10 | 25 | – | > 25 | – | 1.85 | – | – | –
O=C(Cc1ccncc1)N1CCC(=C2c3ccc(Cl)cc3CCc3ccc(Cl)nc32)CC1 [248 (5.124)] | 2.05 | 18 | 1.2 µM | > 50 | – | – | – | – | –
O=C(Cc1ccc[n+]([O-])c1)N1CCC(C2c3ccc(Cl)cc3CCc3cccnc32)CC1 (stereo not drawn) [Example 233] | 10 | 18 | 0.67 µM | > 50 | – | – | – | – | –
O=C(Cc1cc[n+]([O-])cc1)N1CCN(C2c3ccc(Cl)cc3CCc3c(Cl)ccnc32)CC1 (stereo not drawn) [Example 426-A] | > 5 | 6.25 | – | > 25 | – | 0.33 | – | – | –
CC(=O)N1CCC(C(=O)N2CCC(=C3c4ccc(Cl)cc4CCc4cccnc43)CC2)CC1 [Example 89] | 6.3 | 6.3 | 1.8 µM | > 25 | – | – | – | – | –
CC(C)(C)C(=O)N1CCC(=C2c3ccc(Cl)cc3CCc3cccnc32)CC1 [Example 53] | – | – | 1.5 µM | – | 25 | – | > 50 | > 13 | –
CC(C)(C(=O)N1CCN(C2c3ccc(Cl)cc3CCc3cc(Br)cnc32)CC1)c1cc[n+]([O-])cc1 (stereo not drawn) [Example 425-J] | 5 | 3.1 | – | > 25 | – | 0.39 | – | – | –
O=C(Cc1ccncc1)N1CCC(=C2c3ccccc3CCc3ccccc32)CC1 [Example 87] | 12.7 | 50 | 1.14 µM | > 50 | – | – | – | – | –
CC(C)(C(=O)N1CCC(=C2c3ccc(Cl)cc3CCc3cc(Br)cnc32)CC1)c1ccncc1 [Example 411] | ~1 | 18 | – | > 25 | – | 0.32 | – | – | 93 (5)
O=C(Cc1cccnc1)N1CCC(=C2c3ccc(Cl)cc3C=Cc3cccnc32)CC1 [Example 276] | 2.9 | 12.5 | 1.77 µM | 50 | – | – | – | – | –
O=C(Cc1ccncc1)N1CCC(=C2c3ccc(Cl)cc3CCc3c(Cl)ccnc32)CC1 [248 (5.123)] | – | – | 0.19 µM | – | 18 | – | > 50 | 4.6 | –
